Source: patent US9676732B2, “Ethynyl derivatives” (Hoffmann-La Roche Inc., priority 2013, dated 2017)

Molecular target: human mGlu4 receptor (Homo sapiens (Human), UniProt Q14833)
Test: Ca2+ mobilization in vitro assay on recombinant human mGlu4 expressed in HEK293 cells (mGlu4 PAM)
Assay type: cell-based
Settings: for EC50: HEK293 cells stably expressing human mGlu4, L-AP4 added at EC20, read-out: EC50 (nM) mGlu4PAM; for Eff. (%): maximal response in % of the maximal stimulatory effect obtained with saturating concentrations of L-AP4
Procedure: Determination of EC50 Values Using a Ca2+ Mobilization In Vitro Assay on Recombinant Human mGlu4 Expressed in HEK293 Cells:
A monoclonal HEK-293 cell line stably transfected with a cDNA encoding for the human mGlu4 receptor was generated; for the work with mGlu4 Positive Allosteric Modulators (PAMs), a cell line with low receptor expression levels and low constitutive receptor activity was selected to allow the differentiation of agonistic versus PAM activity. Cells were cultured according to standard protocols (Freshney, 2000) in Dulbecco's Modified Eagle Medium with high glucose supplemented with 1 mM glutamine, 10% (vol/vol) heat-inactivated bovine calf serum, Penicillin/Streptomycin, 50 μg/ml hygromycin and 15 μg/ml blasticidin (all cell culture reagents and antibiotics from Invitrogen, Basel, Switzerland).
About 24 hrs before an experiment, 5×10^4 cells/well were seeded in poly-D-lysine coated, black/clear-bottomed 96-well plates. The cells were loaded with 2.5 μM Fluo-4AM in loading buffer (1×HBSS, 20 mM HEPES) for 1 hr at 37° C. and washed five times with loading buffer. The cells were transferred into a Functional Drug Screening System 7000 (Hamamatsu, Paris, France), and 11 half logarithmic serial dilutions of test compound at 37° C. were added and the cells were incubated for 10-30 min. with on-line recording of fluorescence. Following this pre-incubation step, the agonist (2S)-2-amino-4-phosphonobutanoic acid (L-AP4) was added to the cells at a concentration corresponding to EC20 with on-line recording of fluorescence; in order to account for day-to-day variations in the responsiveness of cells, the EC20 of L-AP4 was determined immediately ahead of each experiment by recording of a full dose-response curve of L-AP4.
Responses were measured as peak increase in fluorescence minus basal (i.e. fluorescence without addition of L-AP4), normalized to the maximal stimulatory effect obtained with saturating concentrations of L-AP4. Graphs were plotted with the % maximal stimulatory using XLfit, a curve fitting program that iteratively plots the data using Levenburg Marquardt algorithm. The single site competition analysis equation used was y=A+((B−A)/(1+((x/C)D))), where y is the % maximal stimulatory effect, A is the minimum y, B is the maximum y, C is the EC50, x is the log 10 of the concentration of the competing compound and D is the slope of the curve (the Hill Coefficient). From these curves the EC50 (drug concentration at which 50% of the maximal receptor activation was achieved), the Hill coefficient as well as the maximal response in % of the maximal stimulatory effect obtained with saturating concentrations of L-AP4 were calculated (see FIG. 1).
A depression of the signal observed after addition of the EC20 concentration of L-AP4 was indicative of an inhibitory activity of the test compound. • FIG. 1: Illustration of the experimental outline for mGlu4 PAM Ca2+ mobilization screening assay and the determination of EC50 and % Emax values.

Sequence of human mGlu4 receptor (Q14833 33-912): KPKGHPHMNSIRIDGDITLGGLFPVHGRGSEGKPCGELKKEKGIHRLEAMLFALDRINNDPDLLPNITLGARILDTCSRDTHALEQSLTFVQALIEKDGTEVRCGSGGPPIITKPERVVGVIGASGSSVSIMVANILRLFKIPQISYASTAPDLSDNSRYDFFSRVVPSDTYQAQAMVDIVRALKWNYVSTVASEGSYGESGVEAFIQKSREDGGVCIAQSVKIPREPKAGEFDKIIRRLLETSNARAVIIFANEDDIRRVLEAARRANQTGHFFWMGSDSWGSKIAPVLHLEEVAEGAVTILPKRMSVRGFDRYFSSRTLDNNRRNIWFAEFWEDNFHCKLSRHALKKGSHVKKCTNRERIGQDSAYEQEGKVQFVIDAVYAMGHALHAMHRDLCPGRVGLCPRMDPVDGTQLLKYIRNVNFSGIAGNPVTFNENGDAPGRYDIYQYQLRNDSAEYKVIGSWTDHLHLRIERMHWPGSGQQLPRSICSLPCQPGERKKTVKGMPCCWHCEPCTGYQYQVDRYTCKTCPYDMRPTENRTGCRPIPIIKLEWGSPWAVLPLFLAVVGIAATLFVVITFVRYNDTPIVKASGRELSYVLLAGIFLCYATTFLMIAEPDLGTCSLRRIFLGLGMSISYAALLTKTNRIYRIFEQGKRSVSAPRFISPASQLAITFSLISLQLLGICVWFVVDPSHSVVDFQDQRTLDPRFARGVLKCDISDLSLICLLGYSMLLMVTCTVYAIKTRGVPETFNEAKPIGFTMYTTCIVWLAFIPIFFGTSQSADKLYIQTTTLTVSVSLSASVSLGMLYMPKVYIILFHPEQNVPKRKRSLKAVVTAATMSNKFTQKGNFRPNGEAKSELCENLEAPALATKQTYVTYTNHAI

SMILES | EC50 [nM] | Eff. (%)
Cn1c(=O)n(-c2ccc(C#Cc3ccccc3)cc2Cl)c(=O)c2cccnc21 [Example 7, 3-[2-Chloro-4-(2-phenylethynyl)phenyl]-1-methyl-pyrido[2,3-d]pyrimidine-2,4-dione] | 222 | 101
CC(C)n1c(=O)n(-c2ccc(C#Cc3ccccc3)cc2Cl)c(=O)c2ccccc21 [Example 13, 3-[2-Chloro-4-(2-phenylethynyl)phenyl]-1-isopropyl-quinazoline-2,4-dione] | 57 | 115
Cc1csc2c(=O)n(-c3c(F)cc(C#Cc4ccccc4)cc3F)c(=O)n(C)c12 [Example 27, 3-[2,6-Difluoro-4-(2-phenylethynyl)phenyl]-1,7-dimethyl-thieno[3,2-d]pyrimidine-2,4-dione] | 16 | 83
Cc1csc2c(=O)n(-c3ccc(C#Cc4ccccc4)cc3Cl)c(=O)n(C)c12 [Example 20, 3-[2-Chloro-4-(2-phenylethynyl)phenyl]-1,7-dimethyl-thieno[3,2-d]pyrimidine-2,4-dione] | 50 | 74
Cc1cccc2c(=O)n(-c3ccc(C#Cc4ccccc4)cc3Cl)c(=O)n(C)c12 [Example 2, 3-[2-Chloro-4-(2-phenylethynyl)phenyl]-1,8-dimethyl-quinazoline-2,4-dione] | 94 | 99
Cc1cccc2c1c(=O)n(-c1ccc(C#Cc3ccccc3)cc1Cl)c(=O)n2C [Example 41, 3-[2-Chloro-4-(2-phenylethynyl)phenyl]-1,5-dimethyl-quinazoline-2,4-dione] | 231 | 98
CC(C)n1c(=O)n(-c2c(F)cc(C#Cc3cccnc3)cc2Cl)c(=O)c2ccccc21 [Example 42, 3-[2-Chloro-6-fluoro-4-[2-(3-pyridyl)ethynyl]phenyl]-1-isopropyl-quinazoline-2,4-dione] | 83 | 80
O=c1[nH]c2ncsc2c(=O)n1-c1c(F)cc(C#Cc2ccccc2)cc1F [Example 31, 6-[2,6-Difluoro-4-(2-phenylethynyl)phenyl]-4H-thiazolo[4,5-d]pyrimidine-5,7-dione] | – | 85
Cn1cc2c(n1)c(=O)n(-c1c(F)cc(C#Cc3ccccc3)cc1F)c(=O)n2C [Example 33, 6-[2,6-Difluoro-4-(2-phenylethynyl)phenyl]-2,4-dimethyl-pyrazolo[4,3-d]pyrimidine-5,7-dione] | 47 | 86
CC(C)n1c(=O)n(-c2c(F)cc(C#Cc3ccccc3)cc2F)c(=O)c2cccnc21 [Example 37, 3-[2,6-Difluoro-4-(2-phenylethynyl)phenyl]-1-isopropyl-pyrido[2,3-d]pyrimidine-2,4-dione] | 88 | 73
O=c1c2cccc3c2n(c(=O)n1-c1ccc(C#Cc2ccccc2)cc1Cl)CC3 [Example 12, 2-(2-Chloro-4-(phenylethynyl)phenyl)-5,6-dihydro-1H-pyrrolo[3,2,1-ij]quinazoline-1,3(2H)-dione] | 80 | 106
Cn1c(=O)n(-c2ccc(C#Cc3ccccc3)cc2Cl)c(=O)c2cc(F)ccc21 [Example 18, 3-[2-Chloro-4-(2-phenylethynyl)phenyl]-6-fluoro-1-methyl-quinazoline-2,4-dione] | 148 | 86
Cn1c(=O)n(-c2ccc(C#Cc3ccccc3)cc2Cl)c(=O)c2cncnc21 [Example 17, 3-[2-Chloro-4-(2-phenylethynyl)phenyl]-1-methyl-pyrimido[4,5-d]pyrimidine-2,4-dione] | 143 | 101
Cc1ccc2c(=O)n(-c3ccc(C#Cc4ccccc4)cc3Cl)c(=O)n(C)c2c1 [Example 5, 3-[2-Chloro-4-(2-phenylethynyl)phenyl]-1,7-dimethyl-quinazoline-2,4-dione] | 93 | 108
Cn1c(=O)n(-c2ccc(C#Cc3ccccc3)cc2Cl)c(=O)c2nccnc21 [Example 15, 3-[2-Chloro-4-(2-phenylethynyl)phenyl]-1-methyl-pteridine-2,4-dione] | 110 | 111
Cn1c(=O)n(-c2c(F)cc(C#Cc3ccccc3)cc2F)c(=O)c2ccccc21 [Example 23, 3-[2,6-Difluoro-4-(2-phenylethynyl)phenyl]-1-methyl-quinazoline-2,4-dione] | 203 | 168
Cn1c(=O)n(-c2ccc(C#Cc3ccccc3)cc2Cl)c(=O)c2cccc(Cl)c21 [Example 3, 8-Chloro-3-[2-chloro-4-(2-phenylethynyl)phenyl]-1-methyl-quinazoline-2,4-dione] | 137 | 93
CC(C)n1c(=O)n(-c2c(F)cc(C#Cc3ccccc3)cc2F)c(=O)c2nsnc21 [Example 40, 6-[2,6-Difluoro-4-(2-phenylethynyl)phenyl]-4-isopropyl-[1,2,5]thiadiazolo[3,4-d]pyrimidine-5,7-dione] | 23 | 104

Further lines, results first:

EC50 [nM] | Eff. (%) | SMILES
65 | 134 | CC(C)n1c(=O)n(-c2c(F)cc(C#Cc3cccnc3)cc2F)c(=O)c2nn(C)cc21 [Example 57, 6-[2,6-Difluoro-4-[2-(3-pyridyl)ethynyl]phenyl]-4-isopropyl-2-methyl-pyrazolo[4,3-d]pyrimidine-5,7-dione]
246 | 188 | Cn1c(=O)n(-c2ccc(C#Cc3ccccc3)cc2Cl)c(=O)c2ncsc21 [Example 67, 6-[2-Chloro-4-(2-phenylethynyl)phenyl]-4-methyl-thiazolo[5,4-d]pyrimidine-5,7-dione]
32 | 97 | COc1cccc2c(=O)n(-c3ccc(C#Cc4ccccc4)cc3Cl)c(=O)n(C)c12 [Example 65, 3-[2-Chloro-4-(2-phenylethynyl)phenyl]-8-methoxy-1-methyl-quinazoline-2,4-dione]
74 | 107 | Cc1cccc2c(=O)n(-c3c(F)cc(C#Cc4cccnc4)cc3Cl)c(=O)n(C)c12 [Example 43, 3-[2-Chloro-6-fluoro-4-[2-(3-pyridyl)ethynyl]phenyl]-1,8-dimethyl-quinazoline-2,4-dione]
60 | 122 | Cn1c(=O)n(-c2c(F)cc(C#Cc3ccccc3)cc2F)c(=O)c2cccc(OCC(F)F)c21 [Example 74, 8-(2,2-Difluoroethoxy)-3-[2,6-difluoro-4-(2-phenylethynyl)phenyl]-1-methyl-quinazoline-2,4-dione]
372 | 180 | Cn1c(=O)n(-c2ncc(C#Cc3ccccc3)cc2Cl)c(=O)c2ccccc21 [Example 44, 3-[3-Chloro-5-(2-phenylethynyl)-2-pyridyl]-1-methyl-quinazoline-2,4-dione]
48 | 225 | CC(C)n1c(=O)n(-c2c(F)cc(C#Cc3ccccc3)cc2F)c(=O)c2nccnc21 [Example 68, 3-[2,6-Difluoro-4-(2-phenylethynyl)phenyl]-1-isopropyl-pteridine-2,4-dione]
179 | 97 | CC(C)c1cccc2c(=O)n(-c3ccc(C#Cc4ccccc4)cc3Cl)c(=O)n(C)c12 [Example 54, 3-[2-Chloro-4-(2-phenylethynyl)phenyl]-8-isopropyl-1-methyl-quinazoline-2,4-dione]
200 | 110 | Cn1c(=O)n(-c2ccc(C#Cc3ccccc3)cc2Cl)c(=O)c2scnc21 [Example 52, 6-(2-Chloro-4-phenylethynyl-phenyl)-4-methyl-4H-thiazolo[4,5-d]pyrimidine-5,7-dione]
137 | 92 | CC(C)n1c(=O)n(-c2ncc(C#Cc3ccccc3)cc2Cl)c(=O)c2ccccc21 [Example 45, 3-[3-Chloro-5-(2-phenylethynyl)-2-pyridyl]-1-isopropyl-quinazoline-2,4-dione]
164 | 127 | Cn1c(=O)n(-c2ccc(C#Cc3ccccc3)cc2Cl)c(=O)c2sc(N3CCOCC3)nc21 [Example 51, 6-[2-Chloro-4-(2-phenylethynyl)phenyl]-4-methyl-2-morpholino-thiazolo[4,5-d]pyrimidine-5,7-dione]
